Like-named read-outs stand apart in the source and are kept apart here.
Columns and labels:
Assay type in all cases: biochemical
[1] = target: VIM-2 (Veronese metallo-β-lactamase-2) (Escherichia coli, UniProt Q5U7L7); experiment: Enzyme inhibition assay, VIM-2
Protocol: (§1) The biological activity of the compounds of the present invention was tested using standard assay protocols.^7 The following representative enzymes NDM-1 (New Delhi metallo-β-lactamase-1), IMP-1 (Imipenemase-1) and VIM-2 (Veronese metallo-β-lactamase-2) were selected from different clinically relevant B1 metallo-β-lactamases.

[2] = target: NDM-1 (New Delhi metallo-β-lactamase-1) (Klebsiella pneumoniae, UniProt C7C422); experiment: Enzyme inhibition assay, NDM-1
Protocol: as §1

[3] = target: IMP-1 (Imipenemase-1) (Serratia marcescens, UniProt P52699); experiment: Enzyme inhibition assay, IMP-1
Protocol: as §1

[4] = read-out: pIC50 VIM-2 (converted)
[5] = read-out: pIC50 NDM-1 (converted)
[6] = read-out: pIC50 IMP-1 (converted)

IMP-1 (Imipenemase-1), sequence (P52699 19-246, looked up, species assumed): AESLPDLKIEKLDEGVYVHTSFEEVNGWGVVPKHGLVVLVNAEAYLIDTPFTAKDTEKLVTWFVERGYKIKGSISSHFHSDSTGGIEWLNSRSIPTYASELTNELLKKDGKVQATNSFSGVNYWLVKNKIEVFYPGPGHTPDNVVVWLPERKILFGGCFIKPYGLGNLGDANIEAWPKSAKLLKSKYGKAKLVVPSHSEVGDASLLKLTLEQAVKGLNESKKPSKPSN
NDM-1 (New Delhi metallo-β-lactamase-1), sequence (C7C422 29-270, looked up, species assumed): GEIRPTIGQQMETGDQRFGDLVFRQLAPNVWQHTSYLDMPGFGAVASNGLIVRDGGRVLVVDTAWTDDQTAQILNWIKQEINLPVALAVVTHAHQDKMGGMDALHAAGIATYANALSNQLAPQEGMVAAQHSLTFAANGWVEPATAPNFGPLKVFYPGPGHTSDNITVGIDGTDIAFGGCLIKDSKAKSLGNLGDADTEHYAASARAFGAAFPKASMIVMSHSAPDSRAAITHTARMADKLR

Row | Compound | IC50 [1, 4] [µM] | IC50 [2, 5] [µM] | IC50 [3, 6] [µM] | IC50 [1] [µM] | IC50 [2] [µM] | IC50 [3] [µM]
1 | Cc1cccc2c(-c3cccc([N+](=O)[O-])c3)c(C(=O)O)[nH]c12 [Example 15, 7-methyl-3-(3-nitrophenyl)-1H-indole-2-carboxylic acid] | 0.126 | 0.0251 | 15.8 |  |  | 
2 | Cc1cccc2c(-c3cccc(S(C)(=O)=O)c3)c(C(=O)O)[nH]c12 [Example 16, 7-methyl-3-(3-(methylsulfonyl)phenyl)-1H-indole-2-carboxylic acid] | 0.794 | 0.0501 | 12.6 |  |  | 
3 | Cc1cccc2c(-c3cccc(N(C)C)c3)c(C(=O)O)[nH]c12 [Example 17, 3-(3-(dimethylamino)phenyl)-7-methyl-1H-indole-2-carboxylic acid] | 0.501 | 0.2 | > 100 |  |  | 
4 | Cc1cccc2c(-c3cccc(Br)c3)c(C(=O)O)[nH]c12 [Example 18, 3-(3-bromophenyl)-7-methyl-1H-indole-2-carboxylic acid] | 0.0501 | 0.02 | 2 |  |  | 
5 | Cc1cccc2c(-c3ccc4[nH]ncc4c3)c(C(=O)O)[nH]c12 [Example 19, 3-(1H-indazol-5-yl)-7-methyl-1H-indole-2-carboxylic acid] | 0.1 | 0.0316 | 5.01 |  |  | 
6 | COc1ccccc1-c1c(C(=O)O)[nH]c2c(C)cccc12 [Example 20, 3-(2-methoxyphenyl)-7-methyl-1H-indole-2-carboxylic acid] | 0.2 | 0.126 | 79.4 |  |  | 
7 | Cc1cccc2c(-c3ccn4ncnc4c3)c(C(=O)O)[nH]c12 [Example 21, 3-([1,2,4]triazolo[1,5-a]pyridin-7-yl)-7-methyl-1H-indole-2-carboxylic acid] | 0.126 | 0.126 | > 100 |  |  | 
8 | Cc1cccc2c(-c3cncnc3)c(C(=O)O)[nH]c12 [Example 22, 7-methyl-3-(pyrimidin-5-yl)-1H-indole-2-carboxylic acid] | 1.26 | 0.126 | > 100 |  |  | 
9 | Cc1cccc2c(-c3ccc(N)cc3)c(C(=O)O)[nH]c12 [Example 23, 3-(4-aminophenyl)-7-methyl-1H-indole-2-carboxylic acid] | 1 | 0.0316 | 7.94 |  |  | 
10 | Cc1cccc2c(-c3cccnc3)c(C(=O)O)[nH]c12 [Example 24, 7-methyl-3-(pyridin-3-yl)-1H-indole-2-carboxylic acid] | 0.631 | 0.1 | 12.6 |  |  | 
11 | Cc1cccc2c(C3=CCN(C(=O)OC(C)(C)C)CC3)c(C(=O)O)[nH]c12 [Example 25, 3-(1-(tert-butoxycarbonyl)-1,2,3,6-tetrahydropyridin-4-yl)-7-methyl-1H-indole-2-carboxylic acid] | 2 | 0.0316 | 5.01 |  |  | 
12 | Cc1cccc2c(-c3cnn(C)c3)c(C(=O)O)[nH]c12 [Example 26, 7-methyl-3-(1-methyl-1H-pyrazol-4-yl)-1H-indole-2-carboxylic acid] | 2.51 | 0.1 | 39.8 |  |  | 
13 | Cc1cccc2c(-c3ccccc3C#N)c(C(=O)O)[nH]c12 [Example 28, 3-(2-cyanophenyl)-7-methyl-1H-indole-2-carboxylic acid] | 0.316 | 0.0631 | 25.1 |  |  | 
14 | Cc1cccc2c(-c3ccc(S(=O)(=O)N(C)C)cc3)c(C(=O)O)[nH]c12 [Example 29, 3-(4-(N,N-dimethylsulfamoyl)phenyl)-7-methyl-1H-indole-2-carboxylic acid] | 0.251 | 0.00501 | 0.794 |  |  | 
15 | CC(=O)Nc1ccc(-c2c(C(=O)O)[nH]c3c(C)cccc23)cc1 [Example 30, 3-(4-acetamidophenyl)-7-methyl-1H-indole-2-carboxylic acid] | 0.158 | 0.02 | 2.51 |  |  | 
16 | Cc1cccc2c(-c3cccc4[nH]ncc34)c(C(=O)O)[nH]c12 [Example 31, 3-(1H-indazol-4-yl)-7-methyl-1H-indole-2-carboxylic acid] | 0.0398 | 0.0631 | 63.1 |  |  | 
17 | Cc1cccc2c(-c3ccc4cn[nH]c4c3)c(C(=O)O)[nH]c12 [Example 32, 3-(1H-indazol-6-yl)-7-methyl-1H-indole-2-carboxylic acid] | 0.0794 | 0.0251 | 12.6 |  |  | 
18 | Cc1cccc2c(-c3ccc(Cn4cncn4)cc3)c(C(=O)O)[nH]c12 [Example 33, 3-(4-((1H-1,2,4-triazol-1-yl)methyl)phenyl)-7-methyl-1H-indole-2-carboxylic acid] | 0.251 | 0.00501 | 2 |  |  | 
19 | Cc1cccc2c(-c3ccc(Cn4cccn4)cc3)c(C(=O)O)[nH]c12 [Example 34, 3-(4-((1H-pyrazol-1-yl)methyl)phenyl)-7-methyl-1H-indole-2-carboxylicacid] | 0.2 | 10 | 0.0501 |  |  | 

Row | Compound | IC50 [1, 4] [µM] | IC50 [2, 5] [µM] | IC50 [3, 6] [µM] | IC50 [1] [µM] | IC50 [2] [µM] | IC50 [3] [µM]
20 | Cc1cccc2c(C3=CCNCC3)c(C(=O)O)[nH]c12 [Example 36, 7-methyl-3-(1,2,3,6-tetrahydropyridin-4-yl)-1H-indole-2-carboxylic acid] |  |  |  | 39.8 | 0.398 | > 100
21 | Cc1cccc2c(-c3ccccc3)c(C(=O)O)[nH]c12 [Example 37, 7-methyl-3-phenyl-1H-indole-2-carboxylate] | 0.398 | 0.0316 | 10 |  |  | 
22 | Cc1cccc2c(-c3ccc(-c4ccccc4)cc3)c(C(=O)O)[nH]c12 [Example 40, 3-([1,1′-biphenyl]-4-yl)-7-methyl-1H-indole-2-carboxylic acid] | 0.251 | 0.0158 | 1.58 |  |  | 
23 | Cc1ccccc1-c1c(C(=O)O)[nH]c2c(C)cccc12 [Example 41, 7-methyl-3-(o-tolyl)-1H-indole-2-carboxylic acid] | 0.251 | 0.316 | 1.58 |  |  | 
24 | Cc1cccc2c(-c3ccc(Cl)cc3)c(C(=O)O)[nH]c12 [Example 42, 3-(4-chlorophenyl)-7-methyl-1H-indole-2-carboxylic acid] | 0.251 | 0.0158 | 10 |  |  | 
25 | Cc1cccc2c(-c3ccc(Cl)c(C(F)(F)F)c3)c(C(=O)O)[nH]c12 [Example 43, 3-(4-chloro-3-(trifluoromethyl)phenyl)-7-methyl-1H-indole-2-carboxylic acid] | 0.158 | 0.0316 | 12.6 |  |  | 
26 | Cc1cccc2c(-c3cccc(C(F)(F)F)c3)c(C(=O)O)[nH]c12 [Example 44, 7-methyl-3-(3-(trifluoromethyl)phenyl)-1H-indole-2-carboxylic acid] | 0.2 | 0.0316 | 3.98 |  |  | 
27 | Cc1cccc2c(-c3ccc(C4CC4)cc3)c(C(=O)O)[nH]c12 [Example 45, 3-(4-cyclopropylphenyl)-7-methyl-1H-indole-2-carboxylic acid] | 0.316 | 0.0316 | 3.98 |  |  | 
28 | Cc1ccc2c(-c3ccc(S(N)(=O)=O)cc3)c(C(=O)O)[nH]c2c1 [Example 47, 6-methyl-3-(4-sulfamoylphenyl)-1H-indole-2-carboxylic acid] | 7.94 | 0.398 | 50.1 |  |  | 
29 | Cc1ccc2c(-c3ccc(C(N)=O)cc3)c(C(=O)O)[nH]c2c1 [Example 48, 3-(4-carbamoylphenyl)-6-methyl-1H-indole-2-carboxylic acid] | 3.98 | 0.631 | > 100 |  |  | 
30 | Cc1cccc2c(-c3ccc(F)cc3)c(C(=O)O)[nH]c12 [Example 49, 3-(4-fluorophenyl)-7-methyl-1H-indole-2-carboxylic acid] | 0.501 | 0.0316 | 15.8 |  |  | 
31 | COc1cccc2c(-c3ccc(F)cc3)c(C(=O)O)[nH]c12 [Example 50, 3-(4-fluorophenyl)-7-methoxy-1H-indole-2-carboxylic acid] | 1 | 0.251 | 25.1 |  |  | 
32 | CCCc1cccc2c(-c3ccc(F)cc3)c(C(=O)O)[nH]c12 [Example 52, 3-(4-fluorophenyl)-7-propyl-1H-indole-2-carboxylic acid] | 0.316 | 0.02 | 0.316 |  |  | 
33 | O=C(O)c1[nH]c2c(Cl)cccc2c1-c1ccc(F)cc1 [Example 54, 7-chloro-3-(4-fluorophenyl)-1H-indole-2-carboxylic acid] | 0.794 | 0.251 | 31.6 |  |  | 
34 | COc1ccc2c(-c3ccc(F)cc3)c(C(=O)O)[nH]c2c1C [Example 55, 3-(4-fluorophenyl)-6-methoxy-7-methyl-1H-indole-2-carboxylic acid] | 0.398 | 0.0251 | 2 |  |  | 
35 | Cc1ccc2c(-c3ccc(F)cc3)c(C(=O)O)[nH]c2c1C [Example 56, 3-(4-fluorophenyl)-6,7-dimethyl-1H-indole-2-carboxylic acid] | 0.398 | 0.0316 | 7.94 |  |  | 
36 | CC(C)(C)c1cccc2c(-c3ccc(F)cc3)c(C(=O)O)[nH]c12 [Example 57, 7-(tert-butyl)-3-(4-fluorophenyl)-1H-indole-2-carboxylic acid] | 0.1 | 0.0794 | 0.1 |  |  | 
37 | Cc1cc(F)cc2c(-c3ccc(F)cc3)c(C(=O)O)[nH]c12 [Example 58, 5-fluoro-3-(4-fluorophenyl)-7-methyl-1H-indole-2-carboxylic acid] | 0.794 | 0.0316 | 15.8 |  |  | 
38 | Cc1cc(C)c2[nH]c(C(=O)O)c(-c3ccc(F)cc3)c2c1 [Example 59, 3-(4-fluorophenyl)-5,7-dimethyl-1H-indole-2-carboxylic acid] | 0.501 | 0.126 | 25.1 |  |  | 

Source: US11439622B2 (OXFORD UNIVERSITY INNOVATION LIMITED, priority 2015, dated 2022)
